The source of these data is patent publication US7655655B1, “Method for facilitating extinction training using D-cycloserine” (priority 2009, dated 2010).

Read-outs that look alike come from different tables or passages of the source.

For one series, the system named is Sprague Dawley rats. Description: Extinction of fear-potentiated startle in rats with post-extinction training pre-sleep administration. As to conditions: higher values signify greater extinction. The class given is in vivo, rat. As for the experimental part:
Subjects. Twenty male, Sprague Dawley rats (300-350 grams) were used. Rats were placed in cages used to measure the acoustic startle reflex (Cassella, J. V., and Davis, M. “The design and calibration of a startle measurement system”, Physiology & Behavior (1986), 36, pp. 377-383) and, after a 5 minute acclimation period, presented with 50 startle stimuli (50-ms duration, 5-ms rise-decay time), 10 at each of five intensities (95, 100, 105, 110, and 115 dB) in a semi-random order at a 30-s interstimulus interval. The animals were subsequently divided into four groups of five rats, each having similar mean startle amplitudes across the 10 stimuli at the five intensities.
Fear conditioning and testing. On two consecutive training days, animals were placed in the startle chambers and after a 5-min acclimation period, presented with 10 light shock pairings. The shock was presented during the last 500 ms of the 3,700-ms light at an average intertrial interval of 3 minutes (range, 2-4 min). No further shocks were presented thereafter. Twenty-four hours after the second training day, rats were placed in the startle chamber and presented with 30 95-dB startle stimuli (leaders), followed by the first of 10 startle stimuli presented 3.2 seconds after onset of the light that had previously been paired with a shock, and 10 more startle stimuli alone. The two trial types (light-startle and startle-alone) were presented in an irregular balanced order at a 30-s interstimulus interval. Based on the mean difference in startle amplitude between the mean startle amplitude across the last 10 leaders and the mean startle amplitude across the light-startle trials, a percent fear-potentiated startle was computed as: [(mean difference in startle amplitude between the light-startle and leaders)/mean leaders]×100. The rats were divided into four groups.
Extinction training with or without sleep deprivation. […] Although sleep was not measured directly, the rats were observed on closed-circuit TV and appeared to sleep (rats tend to sleep in the day, when the lights are on). […]

Series [1] concerns Mycobacterium tuberculosis strains. As to conditions: typical Mycobacterium tuberculosis strains; cited from earlier work.
For another series, the system named is rats. As to conditions: cited from earlier work.
A further series has as its system subjects with acrophobia. As to conditions: DCS administered prior to virtual reality therapy sessions, versus placebo; cited from earlier work.
For series [2] the following is noted: cited from earlier work.
The test system of series [3] is subjects chronically ill with tuberculosis. Conditions: chronic dosing schedules, typical tuberculosis doses 500-1000 mg/day; cited from earlier work.

In the case of `N[C@@H]1CON=C1O` [DCS, D-cycloserine], the “mean change in percent fear-potentiated startle prior to and after extinction training” value in the series with Sprague Dawley rats (DCS-DCS group: 15 mg/kg DCS i.p. 15 min before extinction training and again pre-sleep 4 h after training, n=3) stood at 176%; with Sprague Dawley rats (DCS-Sal group: 15 mg/kg DCS i.p. 15 min before extinction training, saline pre-sleep 4 h after training, n=3), 78%; in the series with Sprague Dawley rats (Sal-DCS group: saline i.p. 15 min before extinction training, 15 mg/kg DCS i.p. pre-sleep 4 h after training, n=4), 164%. The “minimum inhibitory concentrations (MIC) in vitro” value in series [1] is 6 to 25 µg/mL. Besides, the “effect on extinction learning” value with rats (DCS injected after extinction training) was “facilitated extinction learning”; with rats (delay between extinction training and administration of DCS increased to four hours) it was “no significant facilitatory effect”. Besides, the “number of therapy sessions required to reach a defined clinical endpoint” value in the series on subjects with acrophobia is “significant reduction”. Further, the peak serum concentrations result in series [2] (child subject, sub-antimicrobial dose less than or equal to 2 mg/kg) is given as “less than or equal to 5 μg/mL”; in series [2] (sub-antimicrobial dose, less than or equal to 2 mg/kg, substantial variability between subjects) it was “less than or equal to 5 μg/mL”. Also, the “serum concentrations generally maintained” value in series [2] (dose of 500 mg/day, chronic treatment of tuberculosis) was 25000 to 30000 ng/mL. For the same compound, in series [2] (known oral capsules), the “time of peak serum concentrations after dosing” value is 3 to 8 h. Besides, the recorded side effects result in series [3] is “drowsiness, depression, headache, confusion, tremor, vertigo, and memory difficulties, paresthesias, and seizure”.
